These results are taken from ChEMBL document CHEMBL5724914, “Linking interpersonal differences in gut microbiota composition and drug biotransformation activity” (2024).

A short description of data set [1]: The drug is tested on Z-026 corresponding to metagenome with ENA study accession number: PRJEB37062 and ENA sample accession number: ERS12561825 for biotransformation under anaerobic condition. The drug concentrations were measured over 9 timepoints collected between 0 and 24 hours of incubation by liquid-chromatography-coupled mass spectrometry (LC–MS). To be noted: 2 µM.

Data set [2] can be described thus: The drug is tested on Z-003 corresponding to pig gut metagenome with ENA study accession number: PRJEB37062 and ENA sample accession number: ERS12561803 for biotransformation under anaerobic condition. The drug concentrations were measured over 9 timepoints collected between 0 and 24 hours of incubation by liquid-chromatography-coupled mass spectrometry (LC–MS). To be noted: 2 µM.

Data set [3] is described as follows: The drug is tested on WLS-310 corresponding to human gut metagenome with ENA study accession number: PRJEB37062 and ENA sample accession number: ERS12561785 for biotransformation under anaerobic condition. The drug concentrations were measured over 9 timepoints collected between 0 and 24 hours of incubation by liquid-chromatography-coupled mass spectrometry (LC–MS). To be noted: 2 µM.

A short description of data set [4]: The drug is tested on WLS-098 corresponding to human gut metagenome with ENA study accession number: PRJEB37062 and ENA sample accession number: ERS12561754 for biotransformation under anaerobic condition. The drug concentrations were measured over 9 timepoints collected between 0 and 24 hours of incubation by liquid-chromatography-coupled mass spectrometry (LC–MS). To be noted: 2 µM.

Data set [5] is described as follows: The drug is tested on WLS-077 corresponding to human gut metagenome with ENA study accession number: PRJEB37062 and ENA sample accession number: ERS12561750 for biotransformation under anaerobic condition. The drug concentrations were measured over 9 timepoints collected between 0 and 24 hours of incubation by liquid-chromatography-coupled mass spectrometry (LC–MS). The note with it: 2 µM.

Data set [6] can be described thus: The drug is tested on WLS-010 corresponding to human gut metagenome with ENA study accession number: PRJEB37062 and ENA sample accession number: ERS12561743 for biotransformation under anaerobic condition. The drug concentrations were measured over 9 timepoints collected between 0 and 24 hours of incubation by liquid-chromatography-coupled mass spectrometry (LC–MS). The note with it: 2 µM.

The conditions of data set [7]: human gut metagenome, 24 h, 2 µM.
The conditions of data set [8]: human gut metagenome, 24 h, 2 µM. The source holds these as a separate data set.
The conditions of data set [9]: human gut metagenome, 24 h, 2 µM. The source holds these as a separate data set.
The conditions of data set [10]: human gut metagenome, 24 h, 2 µM. This is another data set of the same source.
The conditions of data set [11]: human gut metagenome, 24 h, 2 µM. This is another data set of the same source.
For data set [12] the following is noted: human gut metagenome, 24 h, 2 µM. This is another data set of the same source.
The conditions of data set [13]: human gut metagenome, 24 h, 2 µM. The source holds these as a separate data set.
For data set [14] the following is noted: human gut metagenome, 24 h, 2 µM. This is another data set of the same source.
For data set [15] the following is noted: human gut metagenome, 24 h, 2 µM. This is another data set of the same source.
A short description of data set [16]: The drug is tested on Z-014 corresponding to rat gut metagenome with ENA study accession number: PRJEB37062 and ENA sample accession number: ERS12561814 for biotransformation under anaerobic condition. The drug concentrations were measured over 9 timepoints collected between 0 and 24 hours of incubation by liquid-chromatography-coupled mass spectrometry (LC–MS). The note with it: 2 µM.

The nature of data set [17]: The drug is tested on Z-006 corresponding to mouse gut metagenome with ENA study accession number: PRJEB37062 and ENA sample accession number: ERS12561806 for biotransformation under anaerobic condition. The drug concentrations were measured over 9 timepoints collected between 0 and 24 hours of incubation by liquid-chromatography-coupled mass spectrometry (LC–MS). The note with it: 2 µM.

Data set [18] in a line: The drug is tested on Z-008 corresponding to metagenome with ENA study accession number: PRJEB37062 and ENA sample accession number: ERS12561808 for biotransformation under anaerobic condition. The drug concentrations were measured over 9 timepoints collected between 0 and 24 hours of incubation by liquid-chromatography-coupled mass spectrometry (LC–MS). To be noted: 2 µM.
Also: call rule not given here.

With `CN1CCc2cccc3c2[C@H]1Cc1ccc(O)c(O)c1-3` [APOMORPHINE], the “Bacterial Biotransformation” value in [1] is listed as “Compound NOT metabolized”; in data set [2], “Compound metabolized”; in data set [3], “Compound NOT metabolized”; in [4] it was “Compound NOT metabolized”; in data set [5], “Compound NOT metabolized”; in data set [6], “Compound NOT metabolized”. Moreover, the “Bacterial Biotransformation” value in data set [7], in [8], in data set [9], in data set [10], in data set [11] and in [12] was “Compound NOT metabolized” throughout. Besides, the “Bacterial Biotransformation” value in [13], in data set [14] and in [15] was “Compound NOT metabolized” throughout.

`C[C@@H]1CC[C@H]2[C@@H](C)C(=O)O[C@@H]3O[C@@]4(C)CC[C@@H]1[C@]32OO4` [ARTEMISININ]: the “Bacterial Biotransformation” value in data set [1] is “Compound metabolized”; in data set [16], “Compound metabolized”; in data set [17] it was “Compound NOT metabolized”; in data set [3], “Compound metabolized”; in data set [4], “Compound metabolized”; in data set [5], “Compound metabolized”. The “Bacterial Biotransformation” value in data set [6], in [7], in data set [8], in [10], in data set [11] and in data set [12] was “Compound metabolized” throughout. In addition, the “Bacterial Biotransformation” value in [13] and in [14] was “Compound metabolized” in each case.

As for `OC(CCN1CCCCC1)(c1ccccc1)C1CC2C=CC1C2` (centres undefined) [BIPERIDEN], the “Bacterial Biotransformation” value in [3] is listed as “Compound metabolized”; in data set [4], “Compound metabolized”; in data set [5] it was “Compound NOT metabolized”; in data set [6] it was “Compound NOT metabolized”; in [7], “Compound NOT metabolized”; in data set [8] it was “Compound NOT metabolized”. Besides, the “Bacterial Biotransformation” value is “Compound NOT metabolized” in [9]; “Compound metabolized” in data set [10]; “Compound NOT metabolized” in data set [11]; “Compound NOT metabolized” in data set [12]; “Compound NOT metabolized” in data set [13]; “Compound NOT metabolized” in data set [14]. Moreover, in data set [15], the “Bacterial Biotransformation” value is “Compound metabolized”.

With `CN1C[C@H](C(=O)N[C@]2(C)O[C@@]3(O)[C@@H]4CCCN4C(=O)[C@H](Cc4ccccc4)N3C2=O)C=C2c3cccc4[nH]cc(c34)C[C@H]21.CN1C[C@H](C(=O)N[C@]2(C)O[C@@]3(O)[C@@H]4CCCN4C(=O)[C@H](Cc4ccccc4)N3C2=O)C=C2c3cccc4[nH]cc(c34)C[C@H]21.O=C(O)C(O)C(O)C(=O)O` [ERGOTAMINE TARTRATE], the “Bacterial Biotransformation” value in data set [18] is on record as “Compound NOT metabolized”; in data set [17], “Compound NOT metabolized”; in [3], “Compound metabolized”; in data set [4], “Compound metabolized”; in data set [5], “Compound metabolized”; in [6], “Compound metabolized”. Further, the “Bacterial Biotransformation” value in data set [7] is listed as “Compound metabolized”; in data set [8], “Compound metabolized”; in data set [9] it was “Compound metabolized”; in data set [10] it was “Compound metabolized”; in [11], “Compound metabolized”; in [12], “Compound NOT metabolized”. Further, the “Bacterial Biotransformation” value in [13] and in [15] was “Compound metabolized” each time.

Regarding `COC(=O)C1=C(C)NC(C)=C(C(=O)OC(C)C)C1c1cccc2nonc12` (centres undefined) [ISRADIPINE], the “Bacterial Biotransformation” value is “Compound metabolized” in data set [2]; “Compound metabolized” in [3]; “Compound metabolized” in [4]; “Compound NOT metabolized” in [5]; “Compound metabolized” in data set [6]; “Compound metabolized” in [7]. In addition, the “Bacterial Biotransformation” value in data set [8] was “Compound metabolized”; in data set [9], “Compound metabolized”; in [10] it was “Compound metabolized”; in [11], “Compound NOT metabolized”; in [12], “Compound NOT metabolized”; in data set [13], “Compound metabolized”. Moreover, the “Bacterial Biotransformation” value in [14] and in data set [15] was “Compound metabolized” throughout.

As for `CN(C(=O)CN(CCO)CC(=O)N(C)C(C)(C)Cc1ccccc1)C(C)(C)Cc1ccccc1` [OXETHAZAINE], the “Bacterial Biotransformation” value in data set [3], in data set [4], in data set [5], in data set [6], in data set [7] and in [8] was “Compound metabolized” throughout. For the same compound, the “Bacterial Biotransformation” value in data set [9] is on record as “Compound metabolized”; in [10], “Compound metabolized”; in [11], “Compound metabolized”; in data set [12], “Compound NOT metabolized”; in data set [13] it was “Compound metabolized”; in data set [14], “Compound metabolized”. Also, in data set [15], the “Bacterial Biotransformation” value is recorded as “Compound metabolized”.

With `CN1CCN(CC/C=C2/c3ccccc3Sc3ccc(S(=O)(=O)N(C)C)cc32)CC1` [THIOTHIXENE], the “Bacterial Biotransformation” value is given as “Compound metabolized” in data set [3]; “Compound metabolized” in data set [4]; “Compound NOT metabolized” in [5]; “Compound metabolized” in data set [6]; “Compound metabolized” in data set [7]; “Compound metabolized” in data set [8]. The “Bacterial Biotransformation” value in data set [9] is “Compound metabolized”; in data set [10], “Compound metabolized”; in data set [11], “Compound metabolized”; in data set [12], “Compound NOT metabolized”; in [13] it was “Compound metabolized”; in [14], “Compound metabolized”. Besides, the “Bacterial Biotransformation” value in [15] is “Compound metabolized”.

As to `CS(=O)(=O)O.O.O.O.O=C1Cc2cc(CCN3CCN(c4nsc5ccccc45)CC3)c(Cl)cc2N1` [ZIPRASIDONE MESYLATE], the “Bacterial Biotransformation” value in data set [3] was “Compound metabolized”; in data set [4], “Compound metabolized”; in [5], “Compound NOT metabolized”; in data set [6], “Compound NOT metabolized”; in [7] it was “Compound NOT metabolized”; in data set [8], “Compound NOT metabolized”. For the same compound, the “Bacterial Biotransformation” value in data set [9] is given as “Compound NOT metabolized”; in data set [10], “Compound metabolized”; in data set [11], “Compound NOT metabolized”; in data set [12] it was “Compound metabolized”; in data set [13] it was “Compound metabolized”; in [14], “Compound metabolized”. Besides, the “Bacterial Biotransformation” value in data set [15] is listed as “Compound metabolized”.
